Assay results published in patent publication US7070803B2 (Nycomed Austria GmbH, priority 2000, dated 2006).

Assays:
[1] = doses used in clinical practise (10 mg t.i.d.); cited from earlier work
[2] = Plasma pharmacokinetics after oral intake of midodrine (plain tablet / solution); settings: human, in vivo
Excerpt: Considering the chronic nature of the diseases in question, which requires a long-term treatment as well as the correlation between plasma levels and the incidence and severity of adverse events, the development of a controlled release form is highly desired.

[3] = Absorption of midodrine from the colon (plasma levels); settings: human, in vivo, tmax of desglymidodrine after colon absorption, midodrine absorbed in the colon

SMILES | effect on standing blood pressure [1] | Tmax [2] [h] | Tmax [3] [h]
COc1ccc(OC)c(C(O)CNC(=O)CN)c1 (stereo not drawn) [midodrine, 2-amino-N-[2-(2,5-dimethoxyphenyl)-2-hydroxyethyl]-acetamide] | significantly increase standing blood pressure |  | 
COc1ccc(OC)c(C(O)CN)c1 (stereo not drawn) [desglymidodrine, alpha-(aminomethyl)-2,5-dimethoxy-benzenemethanol] |  | 1 | ~3
